Experimental data published in patent publication US8598208B2, “Pyridine derivatives as S1P1/EDG1 receptor modulators” (Actelion Pharmaceuticals Ltd., priority 2007, dated 2013).

Columns and labels:
[1] = biological target: recombinant human S1P1 receptor (Homo sapiens, UniProt P21453); assay: GTPγS assay to determine EC50 values; format: biochemical; settings: membrane preparations of CHO cells expressing recombinant human S1P1 receptor; pH 7.4; read-out: EC50 (agonistic activity, 35S-GTPγS binding)
Chain of recombinant human S1P1 receptor (P21453 whole entry): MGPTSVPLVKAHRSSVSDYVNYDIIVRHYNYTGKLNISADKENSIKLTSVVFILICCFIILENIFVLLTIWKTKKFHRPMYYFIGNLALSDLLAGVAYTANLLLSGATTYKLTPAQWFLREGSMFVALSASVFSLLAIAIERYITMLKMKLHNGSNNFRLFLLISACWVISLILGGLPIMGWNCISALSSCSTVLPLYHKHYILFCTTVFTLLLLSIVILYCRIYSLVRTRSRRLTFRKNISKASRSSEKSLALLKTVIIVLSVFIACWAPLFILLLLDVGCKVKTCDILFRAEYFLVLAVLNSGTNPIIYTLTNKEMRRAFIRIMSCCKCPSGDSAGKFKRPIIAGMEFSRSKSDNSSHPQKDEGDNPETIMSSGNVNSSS
Description: GTPγS binding assays are performed in 96 well microtiter plates (Nunc, 442587) in a final volume of 200 μl, using membrane preparations of CHO cells expressing recombinant human S1P1 receptor. Assay conditions are 20 mM Hepes (Fluka, 54461), 100 mM NaCl (Fluka, 71378), 5 mM MgCl2 (Fluka, 63064), 0.1% BSA (Calbiochem, 126609), 1 μM GDP (Sigma, G-7127), 2.5% DMSO (Fluka, 41644), […] ^35S-GTPγS (Amersham Biosciences, SJ1320). The pH is 7.4. Test compounds are dissolved and diluted in 100% DMSO and pre-incubated at room temperature for 30 min in 150 μl of the above assay buffer, in the absence of ^35S-GTPγS. After addition of 50 μl of ^35S-GTPγS, the assay is incubated for 1 h at rt. The assay is terminated by transfer of the reaction mixture to a Multiscreen plate (Millipore, MAHFC1H60) using a cell harvester from Packard Biosciences, and the plates are washed with ice-cold 10 mM Na2HPO4/NaH2PO4 (70%/30%), dried, sealed at the bottom and, after addition of 25 μl MicroScint20 (Packard Biosciences, order#6013621), sealed on the top. Membrane-bound ^35S-GTPγS is measured with a TopCount from Packard Biosciences.
EC50 is the concentration of agonist inducing 50% of the maximal specific ^35S-GTPγS binding. Specific binding is determined by subtracting non-specific binding from maximal binding. Maximal binding is the amount of cpm bound to the Multiscreen plate in the presence of 10 μM of S1P. Non-specific binding is the amount of binding in the absence of an agonist in the assay.

circulating lymphocytes = assay: Assessment of in vivo efficacy: circulating lymphocytes after oral administration; design: species or system normotensive male Wistar rats; settings: 6 h after oral administration of 3 mg/kg, male Wistar rats, compared to vehicle group; mean ± SEM
Description: The efficacy of the compounds of Formula (I) is assessed by measuring the circulating lymphocytes after oral administration of 3 to 30 mg/kg of a compound of Formula (I) to normotensive male Wistar rats. The animals are housed in climate-controlled conditions with a 12 h-light/dark cycle, and have free access to normal rat chow and drinking water. Blood is collected before and 3, 6 and 24 h after drug administration. Full blood is subjected to hematology using Advia Hematology system (Bayer Diagnostics, Zürich, Switzerland).
All data are presented as mean±SEM. Statistical analyses are performed by analysis of variance (ANOVA) using Statistica (StatSoft) and the Student-Newman-Keuls procedure for multiple comparisons. The null hypothesis is rejected when p≦0.05.

CCc1cc(-c2noc(-c3cc(C)nc(CC)c3)n2)cc(C)n1 [Example 2]
EC50 [1]: 5.2 nM

CCCc1cc(-c2nc(-c3cc(C)nc(C)c3)no2)cc(C)n1 [Example 6]
EC50 [1]: 2.4 nM
Lymphocyte counts (circulating lymphocytes): −68% ± 3%^

Cc1cc(-c2noc(-c3cc(C)nc(CC(C)C)c3)n2)cc(C)n1 [Example 8]
EC50 [1]: 0.4 nM

CCNc1cc(-c2nc(-c3cc(C)nc(CC)c3)no2)cc(C)n1 [Example 29]
EC50 [1]: 0.9 nM

Cc1cc(-c2nc(-c3cnc(NC(C)C)c(C)c3)no2)cc(CC(C)C)n1 [Example 39]
EC50 [1]: 6.1 nM

CCc1cc(-c2noc(-c3cc(C)nc(C(CC)CC)c3)n2)cc(C)n1 [Example 45]
EC50 [1]: 0.4 nM

CCc1cc(-c2nc(-c3cc(C)nc(C)c3)no2)cc(CC(C)C)n1 [Example 61]
EC50 [1]: 1 nM

CCc1cc(-c2noc(-c3cc(CC)nc(CC(C)C)c3)n2)cc(C)n1 [Example 62]
EC50 [1]: 1.4 nM

CCC(CC)c1cc(-c2nc(-c3cc(C)nc(C)c3)no2)cc(C)n1 [Example 65]
EC50 [1]: 0.5 nM

Cc1cc(-c2noc(-c3cc(C)nc(C4CCCC4)c3)n2)cc(C)n1 [Example 66]
EC50 [1]: 0.3 nM

CCc1cc(-c2noc(-c3cc(OC)nc(C4CCCC4)c3)n2)cc(C)n1 [Example 117]
EC50 [1]: 2.1 nM
